Data from patent US10953027B2, “Active agents and methods of their use for the treatment of metabolic disorders and nonalcoholic fatty liver disease” (Flagship Pioneering Innovations V, Inc., priority 2018, dated 2021).

Tests used:
[1] = Assay 1. Stability in Simulated Gastric Fluid (SGF); assay type: in vitro ADME; details: 1 μM, 37° C., SGF pH 1.6 with pepsin
Procedure: Assay 1. Stability of acylated active agents in Simulated Gastric Fluid (SGF). This assay was used to assess the stability of an acylated active agent in a stomach.
Medium was prepared by dissolving 2 g of sodium chloride in 0.6 L of ultrapure water (MilliQ®, Millipore Sigma, Darmstadt, Germany). The pH was adjusted to 1.6 with 1N hydrochloric acid, and the volume was then adjusted to 1 L with purified water.
60 mg FaSSIF powder (Biorelevant™, London, UK) were dissolved in 500 mL buffer (above). Pepsin was added (0.1 mg/mL) (Millipore Sigma, Darmstadt, Germany), and the solution was stirred. The resulting SGF media were used fresh for each experiment.
Test compounds were dissolved in DMSO stock to 1 mM. An aliquot of the DMSO stock solution was removed and diluted in the SGF Media in 15 mL falcon tubes to generate a compound concentration of 1 μM. A 1 mL aliquot was immediately removed and diluted once with 1 volume of acetonitrile for T0 timepoint. The mixture was sealed and mixed at 37° C. in an incubator. Aliquots (1 mL) were removed at regular intervals and immediately quenched by the addition of 1 volume of acetonitrile. The resulting samples were analyzed by LC/MS to determine degradation rates in SGF.

[2] = Assay 2. Stability in Simulated Intestinal Fluid (SIF); assay type: in vitro ADME; details: 1 μM, 37° C., SIF pH 6.7 with pancreatin
Procedure: Assay 2. Stability of acylated active agents in Simulated Intestinal Fluid (SIF). This assay was used to assess the stability of an acylated active agent in a small intestine.
Phosphate buffer was prepared by dissolving 0.42 g of sodium hydroxide pellets and 3.95 g of monobasic sodium phosphate monohydrate and 6.19 g of sodium chloride in ultrapure water (MilliQ®, Millipore Sigma, Darmstadt, Germany). The pH was adjusted to 6.7 using aq. HCl and aq. NaOH, as necessary, and the solution was diluted with ultrapure water to produce 1 L of the pH 6.7 buffer.
112 mg FaSSIF powder (Biorelevant™, London, UK) was dissolved in 50 mL of the pH 6.7 buffer. 2 to 3 mL of the resulting solution were then added to 500 mg pancreatin (Millipore Sigma, Darmstadt, Germany). The resulting mixture was agitated by finger tapping the vessel containing the mixture until milky suspension formed. At this time, the remainder of the 50 mL FaSSiF/pH 6.7 buffer solution was added. The resulting suspension was flipped upside down 10 times to produce SIF, which was used fresh.
Test compounds were dissolved in DMSO stock to 1 mM. An aliquot of the DMSO stock solution was removed and diluted in the SIF media in 15 mL falcon tubes to produce a mixture with a tested compound concentration of 1 μM. A 1 mL aliquot was immediately removed and diluted once with 1 volume of acetonitrile for T0 timepoint. The mixture was sealed and agitated at 37° C. in an incubator. Aliquots (1 mL) were removed at regular intervals and immediately quenched by the addition of 1 volume of acetonitrile. The resulting samples were analyzed by LC/MS to determine degradation rates.

Row | SMILES | Assay 1 (SGF) (% Remaining @ 1 hours) [1] | Assay 2 (SIF) (% @ Remaining 4 hours) [2]
1 | CCCC(=O)O[C@@H]1[C@@H](OC(=O)CCC)[C@H](Oc2ccc(N)cc2C(=O)O)OC[C@H]1OC(=O)CCC [Compound 34, 5-amino-2-[(2S,3R,4S,5R)-3,4,5-tri(butanoyloxy)tetrahydropyran-2-yl]oxy-benzoic Acid] | C (C: >75% of the tested compound remaining) | C (C: >75% of the tested compound remaining)
2 | C[C@@H](O)CCOC(=O)c1cc(N)ccc1O [Compound 39, [(3R)-3-hydroxybutyl] 5-amino-2-hydroxy-benzoate] | C (C: >75% of the tested compound remaining) | C (C: >75% of the tested compound remaining)
3 | CCCC(=O)Nc1ccc(O)c(C(=O)O)c1 [Compound 40, 5-(butanoylamino)-2-hydroxy-benzoic Acid] | C (C: >75% of the tested compound remaining) | C (C: >75% of the tested compound remaining)
4 | CCCC(=O)O[C@H]1[C@@H](Oc2ccc(N)cc2C(=O)O)OC[C@@H](OC(=O)CCC)[C@H]1OC(=O)CCC [Compound 41, 5-amino-2-(((2R,3R,4R,5R)-3,4,5-tris(butyryloxy)tetrahydro-2H-pyran-2-yl)oxy)benzoic Acid] | C (C: >75% of the tested compound remaining) | C (C: >75% of the tested compound remaining)
5 | CC(=O)Oc1cc(C(=O)O)cc(OC(C)=O)c1OC(C)=O [Compound 44, 3,4,5-triacetoxybenzoic Acid] | C (C: >75% of the tested compound remaining) | B (B: 25-75% of the tested compound remaining)
6 | CC(=O)OC[C@H]1O[C@@H](Oc2c(C)c(C)c3c(c2C)CC[C@@](C)(CCC[C@H](C)CCC[C@H](C)CCCC(C)C)O3)[C@H](OC(C)=O)[C@@H](OC(C)=O)[C@@H]1OC(C)=O [Compound 63, [(2R,3R,4S,5R,6S)-3,4,5-triacetoxy-6-[(2R)-2,5,7,8-tetramethyl-2-[(4R,8R)-4,8,12-trimethyltridecyl]chroman-6-yl]oxy-tetrahydropyran-2-yl]methyl Acetate] | C (C: >75% of the tested compound remaining) | C (C: >75% of the tested compound remaining)
7 | C[C@@H]1CCOC(C)(C(=O)Oc2ccc(/C=C/c3cc(OC(=O)C4(C)OCC[C@@H](C)O4)cc(OC(=O)C4(C)OCC[C@@H](C)O4)c3)cc2)O1 (stereo partly drawn) [Compound 65, [4-[(E)-2-[3,5-bis[[(4R)-2,4-dimethyl-1,3-dioxane-2-carbonyl]oxy]phenyl]vinyl]phenyl] (4R)-2,4-dimethyl-1,3-dioxane-2-carboxylate] | C (C: >75% of the tested compound remaining) | C (C: >75% of the tested compound remaining)
8 | Cc1c(C)c2c(c(C)c1OC(=O)C1OCC[C@@H](C)O1)CC[C@@](C)(CCC[C@H](C)CCC[C@H](C)CCCC(C)C)O2 (stereo partly drawn) [Compound 66, [(2R)-2,5,7,8-tetramethyl-2-[(4R,8R)-4,8,12-trimethyltridecyl]chroman-6-yl] (4R)-4-methyl-1,3-dioxane-2-carboxylate] | C (C: >75% of the tested compound remaining) | A (A: <25% of the tested compound remaining)
9 | C=C1CC[C@H](OC(=O)[C@H](OC(=O)CCC)[C@@H](OC(=O)CCC)[C@H](OC(=O)CCC)[C@@H](COC(=O)CCC)OC(=O)CCC)C/C1=C/C=C1\CCC[C@]2(C)[C@@H]([C@H](C)CCCC(C)C)CC[C@@H]12 [Compound 67, [(1 S,3Z)-3-[(2E)-2-[(1R,3aS,7aR)-1-[(1R)-1,5-dimethylhexyl]-7a-methyl-2,3,3a,5,6,7-hexahydro-1H-inden-4-ylidene]ethylidene]-4-methylene-cyclohexyl] (2R,3S,4R,5R)-2,3,4,5,6-penta(butanoyloxy)hexanoate] | B (B: 25-75% of the tested compound remaining) | A (A: <25% of the tested compound remaining)
10 | C=C1CC[C@H](OC(=O)C2OCC[C@@H](C)O2)C/C1=C/C=C1\CCC[C@]2(C)[C@@H]([C@H](C)CCCC(C)C)CC[C@@H]12 (stereo partly drawn) [Compound 69, [(1 S,3Z)-3-[(2E)-2-[(1R,3aS,7aR)-1-[(1R)-1,5-dimethylhexyl]-7a-methyl-2,3,3a,5,6,7-hexahydro-1H-inden-4-ylidene]ethylidene]-4-methylene-cyclohexyl] (4R)-4-methyl-1,3-dioxane-2-carboxylate] | C (C: >75% of the tested compound remaining) | C (C: >75% of the tested compound remaining)
11 | C=C1CC[C@H](OC(=O)C2(C)OCC[C@@H](C)O2)C/C1=C/C=C1\CCC[C@]2(C)[C@@H]([C@H](C)CCCC(C)C)CC[C@@H]12 (stereo partly drawn) [Compound 70, [(1 S,3Z)-3-[(2E)-2-[(1R,3aS,7aR)-1-[(1R)-1,5-dimethylhexyl]-7a-methyl-2,3,3a,5,6,7-hexahydro-1H-inden-4-ylidene]ethylidene]-4-methylene-cyclohexyl] (4R)-2,4-dimethyl-1,3-dioxane-2-carboxylate] | B (B: 25-75% of the tested compound remaining) | C (C: >75% of the tested compound remaining)
12 | CCCC(=O)O[C@H]1[C@@H](OC(=O)CCC)COC(O)[C@@H]1OC(=O)CCC (stereo partly drawn) [Compound 72, (3R,4S,5S)-2-hydroxytetrahydro-2H-pyran-3,4,5-triyl Tributyrate] | C (C: >75% of the tested compound remaining) | A (A: <25% of the tested compound remaining)
13 | CCCC(=O)O[C@H](C)CCOC(=O)Oc1ccc(/C=C/c2cc(OC(=O)OCC[C@@H](C)OC(=O)CCC)cc(OC(=O)OCC[C@@H](C)OC(=O)CCC)c2)cc1 [Compound 75, (2R,2′R)-((((5-((E)-4-((((R)-3-(butyryloxy)butoxy)carbonyl)oxy)styryl)-1,3-phenylene)bis(oxy))bis(carbonyl))bis(oxy))bis(butane-4,2-diyl) dibutyrate] | C (C: >75% of the tested compound remaining) | B (B: 25-75% of the tested compound remaining)
14 | CCC(=O)OCC[C@@H](C)OC(=O)Oc1ccc(/C=C/c2cc(OC(=O)O[C@H](C)CCOC(=O)CC)cc(OC(=O)O[C@H](C)CCOC(=O)CC)c2)cc1 [Compound 76, (3R,3′R)-((((5-((E)-4-(((((R)-4-(propionyloxy)butan-2-yl)oxy)carbonyl)oxy)styryl)-1,3-phenylene)bis(oxy))bis(carbonyl))bis(oxy))bis(butane-3,1-diyl) dipropionate] | B (B: 25-75% of the tested compound remaining) | A (A: <25% of the tested compound remaining)
15 | CCC(=O)O[C@H](C)CCOC(=O)Oc1ccc(/C=C/c2cc(OC(=O)OCC[C@@H](C)OC(=O)CC)cc(OC(=O)OCC[C@@H](C)OC(=O)CC)c2)cc1 [Compound 77, (2R,2′R)-((((5-((E)-4-((((R)-3-(propionyloxy)butoxy)carbonyl)oxy)styryl)-1,3-phenylene)bis(oxy))bis(carbonyl))bis(oxy))bis(butane-4,2-diyl) dipropionate] | B (B: 25-75% of the tested compound remaining) | A (A: <25% of the tested compound remaining)
16 | C[C@@H]1O[C@H](OC(=O)CCc2c[nH]c3ccccc23)[C@@H](OC(=O)CCc2c[nH]c3ccccc23)[C@H](OC(=O)CCc2c[nH]c3ccccc23)[C@@H]1OC(=O)CCc1c[nH]c2ccccc12 [Compound 103, (2R,3S,4R,5R,6S)-3,4,5-tris({[3-(1H-indol-3-yl)propanoyl]oxy})-6-methyloxan-2-yl 3-(1H-indol-3-yl)propanoate] | B (B: 25-75% of the tested compound remaining) | A (A: <25% of the tested compound remaining)
